Measurements from US9096547B2, “Sodium salt of 6-fluoro-3-hydroxy-2-pyrazine carboxamide” (Toyama Chemical Co., Ltd., priority 2010, dated 2015).

Tests used:
[1] = Stability (1): appearance after standing at 60° C. for 1 month; type: physicochemical; details: stand still at 60° C. for 1 month
Description: The preparations of Examples 1, 7, 9, 10, 11, 12, 25, 28 and 29 were allowed to stand still at 60° C. for 1 month and then their appearance was observed.

[2] = Stability (2): appearance after irradiation by a D65 lamp; type: physicochemical; details: irradiated (1,200,000 lx·hr) by a D65 lamp
From the text: The preparations of Examples 1, 10, 15, 16, 22 and Comparative Example 1 were irradiated (1,200,000 lx·hr) by a D65 lamp (FLR20S-D-EDL-D65/M) and then their appearance was observed.

With `NC(=O)c1nc(F)cnc1O.[Na]` [Example 1, sodium salt of 6-fluoro-3-hydroxy-2-pyrazinecarboxamide] the appearance change [1] was “appearance change was not observed” and the appearance change [2] was “appearance change was not observed”.
